Results: article PMC8036727, “In Vitro Anticancer Potential of Jasione montana and Its Main Components against Human Amelanotic Melanoma Cells” (International Journal of Molecular Sciences, 2021)
Converted amounts (≈) assume the structure as drawn. Counter-ions that a name gives are not always drawn.

Assays:
[1] = tested on: human amelanotic melanoma cell line C32 (CRL-1585); assay: Fixable viability stain (FVS520) cytotoxicity assay, flow cytometry; format: cell-based; conditions: C32 cells, 24 h, 10–300 μg/mL, mean ± SD
Method: (§1) The human amelanotic melanoma cell line C32 (CRL-1585) and a normal human fibroblast cell line (PCS-201-012) were cultured in DMEM. DMEM was blended with 10% FBS, 10 µg/mL streptomycin, and […] penicillin. The cells were cultured in 5% CO2 and fully humidified at 37 °C. All tested compounds were used at a final DMSO concentration of not more than 0.5% (v/v). Cells cultured in drug-free DMEM were used as controls, and cells with the addition of only DMSO were used as solvent-controls; VLB was used as a positive control. The JM4 fraction was analyzed at the following concentrations: 25, 50 and 100 µg/mL and compound 22 and VLB were analyzed at 25 µg/mL. For the cytotoxicity assay, all extracts and compounds were tested at the following concentrations: 10, 25, 50, 100, 200, and 300 µg/mL.
This analysis was performed to estimate the level of viable cells after treatment with JM1–JM6, compounds 9, 12, 22 and VLB at concentrations ranging from 10 to 300 µg/mL. Cytotoxicity was evaluated by FVS520 via a flow cytometer (BD FACSCanto II flow cytometer, San Jose, CA, USA). In contrast to nonpermeable live cells, the permeable membranes of necrotic cells allow for the intracellular diffusion of FVS520 and the covalent binding of high concentrations of amines. Thus, necrotic cells contained a higher level of FVS520 and, consequently, increased fluorescence intensity than viable cells. After 24 h of incubation, C32 cells and fibroblasts were washed with PBS, trypsinized and resuspended in DMEM. The supernatant was removed, and 0.5 mL of Stain Buffer with the addition of 1 µL of FVS520 was added to each sample, which was vortexed immediately and kept for 10–15 min in the dark at room temperature. After incubation and the addition of 2 mL of PBS, the supernatant was removed, the cells were resuspended in 300 µL of PBS and then immediately subjected to analysis. The results were analyzed based on FACSDiva software (BD Biosciences Systems, San Jose, CA, USA). Based on the results of the cytotoxicity analysis, further research in this project focused on the determination of the full anticancer mechanism of the most promising fraction JM4 and compound 22.

C32 melanoma cells [2] = assay: Autophagy Assay, Red, flow cytometry; format: cell-based, human; conditions: 25 μg/mL, 24 h
Method: as §1
An autophagy assay was carried out to detect the impact of JM4, compound 22, and VLB on the autophagy process of C32 cells via flow cytometry using an Autophagy Assay, Red kit. The probe is a cell-permeable aliphatic molecule that brightly fluoresces after unjumbling […] and autolysosomes into lipid membranes. […] The results were analyzed with FACSDiva software.

[3] = tested on: caspase-3 in C32 melanoma cells; assay: FLICA Caspase-3/7 assay, flow cytometry; format: cell-based, human; conditions: 25 μg/mL, 24 h; untreated control 4.2 ± 1.3%
Method: as §1
Determination of the caspase-3, caspase-8, caspase-9, and caspase-10 activity were carried out by the following kits: FLICA Caspase-3/7 Assay Kit, FLICA Caspase-8 Assay Kit, FLICA Caspase-9 Assay Kit, and FLICA Caspase-10 Assay Kit using a BD FACSCanto II flow cytometer. C32 cells were incubated with JM4, compound 22 and VLB for 24 h, washed twice with PBS, resuspended in buffer supplemented with […] of FLICA reagent, and incubated. […] The results were analyzed with FACSDiva software.

C32 melanoma cells [4] = assay: Mitochondrial membrane potential (MMP), JC-1 MitoScreen, flow cytometry; format: cell-based, human; conditions: 25 μg/mL, 24 h; untreated control 5.2 ± 0.1%
Method: The human amelanotic melanoma cell line C32 (CRL-1585) and a normal human fibroblast cell line (PCS-201-012) were cultured in DMEM. […] Cells cultured in drug-free DMEM were used as controls, and cells with the addition of only DMSO were used as solvent-controls; VLB was used as a positive control. The JM4 fraction was analyzed at the following concentrations: 25, 50 and 100 µg/mL and compound 22 and VLB were analyzed at 25 µg/mL. For the cytotoxicity assay, all extracts and compounds were tested at the following concentrations: 10, 25, 50, 100, 200, and 300 µg/mL. […] After incubation, the cells were flushed again, resuspended in PBS, and immediately subjected to BD FACSCanto II flow cytometry analysis. The results were analyzed using FACSDiva.

C32 melanoma cells [5] = assay: Annexin V-FITC/PI binding apoptosis assay, flow cytometry; format: cell-based, human; conditions: 25 μg/mL, 24 h; for apoptotic cells: untreated control 7.3 ± 1.3%
Method: During programmed cell death, annexin V has a high affinity for phosphatidylserine (PS) when it is exposed to the extracellular environment. […] The assay allows differentiability between viable cells (annexin V–/PI–) and early (annexin V–/PI+) and late (annexin V+/PI+) apoptotic cells, as well as necrotic cells (annexin V–/PI+).
The human amelanotic melanoma cell line C32 (CRL-1585) and a normal human fibroblast cell line (PCS-201-012) were cultured in DMEM. DMEM was blended with 10% FBS, 10 µg/mL streptomycin, and 10 units/mol penicillin. The cells were cultured in 5% CO2 and fully humidified at 37 °C. All tested compounds were used at a final DMSO concentration of not more than 0.5% (v/v). Cells cultured in drug-free DMEM were used as controls, and cells with the addition of only DMSO were used as solvent-controls; VLB was used as a positive control.
Characterization of the mode of apoptosis induced by JM4, 22 and VLB was performed in C32 cells via flow cytometry using a FITC Annexin V Apoptosis Detection Kit II. All stages of programmed cell death could be identified by annexin V bound with high affinity to PS. PI is a standard flow cytometric viability explorer that stains cells that interfere with the cell membrane, and it can be used to distinguish necrotic cells from dead cells. After the C32 cells were incubated for 24 h with various concentrations of JM4, 22 and VLB, they were trypsinized and resuspended in binding buffer. After that, 5 µL of annexin V-FITC and 5 µL of PI were added and maintained for 15 min in the dark at room temperature. The results were analyzed using FACSDiva software.

[6] = tested on: normal human fibroblast cell line (PCS-201-012); assay: Fixable viability stain (FVS520) cytotoxicity assay, flow cytometry; format: cell-based; conditions: normal human fibroblasts, 24 h, 10–300 μg/mL
Method: The human amelanotic melanoma cell line C32 (CRL-1585) and a normal human fibroblast cell line (PCS-201-012) were cultured in DMEM. […] Cells cultured in drug-free DMEM were used as controls, and cells with the addition of only DMSO were used as solvent-controls; VLB was used as a positive control. The JM4 fraction was analyzed at the following concentrations: 25, 50 and 100 µg/mL and compound 22 and VLB were analyzed at 25 µg/mL. For the cytotoxicity assay, all extracts and compounds were tested at the following concentrations: 10, 25, 50, 100, 200, and 300 µg/mL. […] Cytotoxicity was evaluated by FVS520 via a flow cytometer (BD FACSCanto II flow cytometer, San Jose, CA, USA). In contrast to nonpermeable live cells, the permeable membranes of necrotic cells allow for the intracellular diffusion of FVS520 and the covalent binding of high concentrations of amines. Thus, necrotic cells contained a higher level of FVS520 and, consequently, increased fluorescence intensity than viable cells. After 24 h of incubation, C32 cells and fibroblasts were washed with PBS, trypsinized and resuspended in DMEM. […] After incubation and the addition of 2 mL of PBS, the supernatant was removed, the cells were resuspended in 300 µL of PBS and then immediately subjected to analysis. The results were analyzed based on FACSDiva software (BD Biosciences Systems, San Jose, CA, USA). […]

[7] = tested on: caspase-8 in C32 melanoma cells; assay: FLICA Caspase-8 assay, flow cytometry; format: cell-based, human; conditions: 25 μg/mL, 24 h
Method: (§2) The human amelanotic melanoma cell line C32 (CRL-1585) and a normal human fibroblast cell line (PCS-201-012) were cultured in DMEM. […] Cells cultured in drug-free DMEM were used as controls, and cells with the addition of only DMSO were used as solvent-controls; VLB was used as a positive control. The JM4 fraction was analyzed at the following concentrations: 25, 50 and 100 µg/mL and compound 22 and VLB were analyzed at 25 µg/mL. For the cytotoxicity assay, all extracts and compounds were tested at the following concentrations: 10, 25, 50, 100, 200, and 300 µg/mL. Determination of the caspase-3, caspase-8, caspase-9, and caspase-10 activity were carried out by the following kits: FLICA Caspase-3/7 Assay Kit, FLICA Caspase-8 Assay Kit, FLICA Caspase-9 Assay Kit, and FLICA Caspase-10 Assay Kit using a BD FACSCanto II flow cytometer. […] After 1 h, the cells were flushed with apoptosis wash buffer and resuspended in […] of the same reagent with […] PI. The procedure of determining the activity of each caspase was carried out analogously. The results were analyzed with FACSDiva software.

[8] = tested on: caspase-9 in C32 melanoma cells; assay: FLICA Caspase-9 assay, flow cytometry; format: cell-based, human; conditions: 25 μg/mL, 24 h
Method: as §2

C32 melanoma cells [9] = assay: Cell cycle analysis by PI staining, flow cytometry; format: cell-based, human; conditions: 25 μg/mL, 24 h
Method: The human amelanotic melanoma cell line C32 (CRL-1585) and a normal human fibroblast cell line (PCS-201-012) were cultured in DMEM. […] Cells cultured in drug-free DMEM were used as controls, and cells with the addition of only DMSO were used as solvent-controls; VLB was used as a positive control. The JM4 fraction was analyzed at the following concentrations: 25, 50 and 100 µg/mL and compound 22 and VLB were analyzed at 25 µg/mL. For the cytotoxicity assay, all extracts and compounds were tested at the following concentrations: 10, 25, 50, 100, 200, and 300 µg/mL. The allocation of cell cycle stage was analyzed on a FACSCanto II flow cytometer. C32 cells were cured with JM4, 22 and VLB for 24 h of incubation. Thereafter, the cells were harvested and adjusted with 1 mL of 70% EtOH and maintained at −20 °C for 24 h. Next, the cells were washed with PBS, treated with 50 µg/mL DNase-free RNase A solution for 5 min at room temperature, stained with 100 µg/mL PI for 30 min at 37 °C, and submitted to flow cytometry analysis. The results were analyzed with FACSDiva software.

[10] = tested on: caspase-10 in C32 melanoma cells; assay: FLICA Caspase-10 assay, flow cytometry; format: cell-based, human; conditions: 25 μg/mL, 24 h
Method: as §2

CC[C@]1(O)C[C@@H]2CN(CCc3c([nH]c4ccccc34)[C@@](C(=O)OC)(c3cc4c(cc3OC)N(C)[C@H]3[C@@](O)(C(=O)OC)[C@H](OC(C)=O)[C@]5(CC)C=CCN6CC[C@]43[C@@H]65)C2)C1 [VLB, vinblastine sulfate]
IC50 [1]: 148 ± 7.7 µg/mL
autophagic cells (C32 melanoma cells [2]; untreated control 4.8 ± 0.8%): 76.7 ± 0.5%
nonautophagic cells (C32 melanoma cells [2]; untreated control 94.5 ± 1.0%): 22.4 ± 0.6%
cells with active caspase-3 [3]: 23.4 ± 3.5%
cells with a reduced MMP (C32 melanoma cells [4]): 34.1 ± 3.0%
necrotic cells (C32 melanoma cells [5]): 4.2 ± 1.0%
apoptotic cells (C32 melanoma cells [5]): 27.4 ± 1.0%

O=c1cc(-c2ccc(O)c(O)c2)oc2cc(O)cc(O)c12 [Compound 22, luteolin]
IC50 [1]: 95.1 ± 7.2 µg/mL (≈ 332 µM)
IC50 [6]: 194 ± 4.4 µg/mL (≈ 678 µM)
cells with active caspase-8 [7]: 20.2 ± 1.5%
cells with active caspase-9 [8]: 16.6 ± 0.8%
cells with a reduced MMP (C32 melanoma cells [4]): 31.8 ± 0.7%
percentage of C32 cells in G2/M phase (C32 melanoma cells [9]; untreated control 6.1 ± 0.6%): 14.6 ± 1.5%
percentage of C32 cells in G1 phase (C32 melanoma cells [9]; untreated control 73.0 ± 0.9%): 35.3 ± 3.0%
apoptotic cells (C32 melanoma cells [5]): 29.2 ± 3.0%
cells with active caspase-10 [10]: 15.4 ± 0.7%

O=c1cc(-c2ccc(O)c(O)c2)oc2cc(OC3OC(CO)C(O)C(O)C3O)cc(O)c12 [Compound 12, luteolin 7-O-β-D-glucoside]
IC50 [1]: > 300 µg/mL

O=c1cc(-c2ccc(O)c(O)c2)oc2cc(OC3OC(CO)C(O)C(O)C3OC3OCC(O)C(O)C3O)cc(O)c12 [Compound 9, luteolin 7-O-β-D-xylosyl-(1-2)-β-D-glucoside]
IC50 [1]: > 300 µg/mL
